Patent US7273875B2, “Naphthyridine derivatives, their preparation and their use as phosphodiesterase isoenzyme 4 (PDE4) inhibitors” (Novartis AG, priority 2001, dated 2007)
pIC50: −log10 of the molar value. Structures can show the parent of a compound that is named as a salt.

Columns and labels:
human PDE4D = biological target: T1, human PDE4D (Homo sapiens, UniProt Q08499); assay: PDE4 isoenzyme inhibition assay (SPA), PDE4D; type: biochemical; conditions: [3H]-cAMP, 1 μM cAMP, 30-60 minutes at room temperature, 1% DMSO
T1 construct: PDE4 cDNA constructs containing the coding regions of the three isoenzymes; made in house; host or cells: Sf21 insect cells (baculovirus, Bac-To-Bac)
Source text: PDE4 Isoenzyme Inhibition Assay
Cloning: GATEWAY flanked PDE4 cDNA constructs containing the coding regions of the three isoenzymes, human PDE4A, human PDE4B, and human PDE4D are generated by PCR and transposed into the GATEWAY shuttle vector pDONOR-201. In addition a 6-histidine tag is introduced by PCR onto the carboxyl terminal end of each of the constructs to facilitate protein purification. Following sequence verification, the PDE4 constructs are transposed into the GATEWAY expression vector pDEST-8, Positive recombinants are selected and transposed into E. coli strain DH10Bac and bacmid produced transfected into SF21 cells using Bac-To-Bac (Invitrogen Life Technologies). Positive transfections are selected and used to generate high titer viral stocks for use in protein expression.
PDE4 Expression: Sf21 cells are grown to a density of 2×10^6 cells/ml and infected with human PDE4A, PDE4B or PDE4D3 containing baculovirus to a multiplicity of infection (m.o.i.) of 1 for 72 hours. The infected cells are harvested by centrifugation at 1,400 g for 4 minutes at 4° C. and the cell pellets are frozen at −80° C. Sf21 (Spodoptera frugiperda 21) insect cells are routinely maintained at densities between […] and 3×10^6 cells/ml in SF00 Serum Free Medium (Invitorgen Life Technologies). Sf21 cells ([…]) are resuspended in 100 ml cold (4° C.) Lysis Buffer (50 mM Na2HPO4, 200 mM NaCl, 10 mM Imidazole). Cells are incubated on ice for 30 minutes then centrifuged at 15,000 g for 20 minutes at 4° C.
PDE4 Purification: The 6 Histidine-tagged PDE4 proteins are isolated from crude cell lysates by a batch-wise Ni-NTA purification strategy (QIAGEN). N-NTA resin is first pre-rinsed to remove ethanol preservative and equilibrated with Lysis Buffer. Cell lysate is added, (10 ml 50% Ni-NTA slurry resin per 50 ml lysate), and gently rotated on a mixer at 4° C. for 1-2 hours. The sample is then centrifuged at 1,000 g for 5 minutes at 4° C. using Denley benchtop centrifuge. The supernatant is removed and the resin is washed 3 times with 50 ml ice cold Wash Buffer (50 mM Na2HPO4, 300 mM NaCl and 20 mM imidazole) followed by centrifugation at 1,000 g for 5 min at 4° C. The 6His-tagged protein is eluted from the resin with 3×5 ml ice cold Elution Buffer (50 mM NaH2PO4, 300 mM NaCl, 250 mM imidazole) and collected by centrifugation at 1,000 g for 5 minutes at 4° C. The supernatants are then pooled before buffer exchange and concentration using a VivaScience 20 ml SK 0.2 μM Concentrator. Samples are aliquoted and stored at −20° C.
PDE4 Assay: The assay is based on Amersham Pharmacia Biotech Scintillation Proximity Assay (SPA) technology. Enzyme is diluted with enzyme dilution buffer (10 mM Tris-HCl, pH7.5 containing 1 mM EDTA) in order to obtain between 10-30% total substrate hydrolysis during the assay. The enzymatic reaction is started by adding 10 μl diluted enzyme to 80 μl substrate (0.1 μCi [3H]-cAMP, 1 μM cAMP) and 10 μl inhibitor solution in a 96-well microtiter plate. After 30-60 minutes incubation at room temperature the reaction is stopped by adding 50 μl PDE SPA beads (20 mg/ml). After 30 minutes the plate is centrifuged (3000 g, 10 minutes) and counted (Packard TopCount).
Inhibitor stock solutions are prepared in 100% dimethylsulphoxide (DMSO) and diluted with DMSO/water to achieve 10 concentrations to cover the range of 0-100% inhibition. The concentration of DMSO is kept constant at 1% (v/v) throughout the assay.
The concentration at which 50% inhibition occurs (IC50) is determined from inhibition—concentration curves in a conventional manner.

T1 sequence (Q08499 1-673 isoform Q08499-2): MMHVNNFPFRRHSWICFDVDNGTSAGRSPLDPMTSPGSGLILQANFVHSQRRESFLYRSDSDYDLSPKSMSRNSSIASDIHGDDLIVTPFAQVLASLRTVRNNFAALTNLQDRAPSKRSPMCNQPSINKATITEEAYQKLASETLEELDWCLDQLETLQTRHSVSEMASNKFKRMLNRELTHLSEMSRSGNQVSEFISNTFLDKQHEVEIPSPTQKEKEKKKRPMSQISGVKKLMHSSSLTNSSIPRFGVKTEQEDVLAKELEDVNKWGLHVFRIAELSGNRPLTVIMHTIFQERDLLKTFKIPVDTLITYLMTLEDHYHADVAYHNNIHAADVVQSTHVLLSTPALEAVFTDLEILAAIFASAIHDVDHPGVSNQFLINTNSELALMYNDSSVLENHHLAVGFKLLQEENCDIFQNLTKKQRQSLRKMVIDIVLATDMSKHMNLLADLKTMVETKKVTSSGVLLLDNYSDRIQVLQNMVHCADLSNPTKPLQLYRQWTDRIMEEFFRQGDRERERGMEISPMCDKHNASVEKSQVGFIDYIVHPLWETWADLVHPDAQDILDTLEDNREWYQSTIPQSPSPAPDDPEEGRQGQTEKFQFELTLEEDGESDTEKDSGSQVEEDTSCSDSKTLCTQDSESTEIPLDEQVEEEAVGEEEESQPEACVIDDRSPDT

SMILES	melting point	pIC50 (human PDE4D)
O=C(O)C1CCC(c2cc3cccnc3c(-c3cccc(F)c3)n2)CC1 (stereo not drawn) [Example 12, 4-[8-(3-Fluorophenyl)-[1,7]naphthyridin-6-yl]-cyclohexanecarboxylic acid]		7.68
O=C(O)C1CCC(c2cc3cccnc3c(-c3cccc(OC(F)(F)F)c3)n2)CC1 (stereo not drawn) [Example 14, 4-[8-(3-Trifluoromethoxyphenyl)-[1,7]naphthyridin-6-yl]-cyclohexanecarboxylic acid]		7.24
CSc1cccc(-c2nc(C3CCC(C(=O)O)CC3)cc3cccnc23)c1 (stereo not drawn) [Example 15, 4-[8-(3-Methylsulfanyl-phenyl)-[1,7]naphthyridin-6-yl]-cyclohexanecarboxylic acid]	177.6 to 178.2 °C	8.05

Second part, the molecule after the results:

melting point	pIC50 (human PDE4D)	SMILES
> 250 °C		N#Cc1cccc(-c2nc(C3CCC(C(=O)O)CC3)cc3cccnc23)c1 (stereo not drawn) (as salt: potassium) [Example 3, 4-[8-(3-Cyano-phenyl)-[1,7]naphthyridin-6-yl]-cyclohexanecarboxylic acid]
	7.42	CCOC(=O)C1CCC(c2cc3cccnc3c(-c3cccc(C#N)c3)n2)CC1 (stereo not drawn) [Example 1, 4[8-(3-Cyano-phenyl)-[1,7]naphthyridin-6-yl]-cyclohexanecarboxylic acid ethyl ester]
	8.05	N#Cc1cccc(-c2nc(C3CCC(C(=O)O)CC3)cc3cccnc23)c1 (stereo not drawn) [Example 3, 4-[8-(3-Cyano-phenyl)-[1,7]naphthyridin-6-yl]-cyclohexanecarboxylic acid]
209 to 212 °C	7.60	COc1cccc(-c2nc(C3CCC(C(=O)O)CC3)cc3cccnc23)c1 (stereo not drawn) [Example 10, 4-[8-(3-Methoxy-phenyl)-[1,7]naphthyridin-6-yl]-cyclohexanecarboxylic acid]
